Source: publication PMC4608580, “Synthesis and Evaluation of Biological Activity of Antimicrobial – Pro-Proliferative Peptide Conjugates” (PLoS ONE, 2015)
Values after ≈ are worked out from the molar mass of the structure shown. Residues, ends and D or L forms follow the SMILES beside them.

Assays:
[1] = test system: B. cereus; assay type: cell-based; conditions: broth microdilution, Mueller-Hinton broth, approximately 10^5 CFU/mL, 37°C, 24 h, absorbance 590 nm, at least triplicate
Description: (§1) Luria-Bertani broth (LB) and Sabouraud Dextrose broth (SB) (Biocorp, Poland) were used for cultivation of bacteria and fungi strains, respectively. Antimicrobial activity of peptides was analyzed through determination of MIC (minimal inhibitory concentration) parameter according to the standard microdilution technique performed on 96-well plates. Mueller-Hinton broth (MHB) was used as the working medium for all bacterial strains, while in case of fungi it was additionally supplemented with 2% glucose.
(§2) Briefly, inoculum was prepared from freshly grown cultures of microorganisms being at their exponential phase of growth. Each well of 96-well plates containing 100 μL of serially diluted peptides in PBS (phosphate buffer saline) at concentration ranging from 2 to 250 μg/mL were inoculated with 100 μL of approximately 10^5 CFU/mL of bacterial suspension or about 2.5 x 10^3 CFU/mL of fungi suspended in a double concentrated Mueller-Hinton broth (supplemented with 2% glucose for Candida spps.). Then plates were incubated overnight at 37°C and absorbance was read at 590 nm after 24 h. Cultures without peptide were treated as positive control, while uninoculated Mueller-Hinton broth was defined as negative control. All measurements were run at least in triplicate.
(§3) All peptides were screened against the wide range of microorganisms, including Gram-negative, Gram-positive bacteria and fungi from Candida species (Table 2). Broth microdilution method for MIC determination was used as a standard procedure. All assays were performed on liquid Mueller-Hinton broth, which was additionally supplemented with 2% glucose when fungicidal activity towards Candida spps. was analyzed.

[2] = test system: B. subtilis; assay type: cell-based; conditions: broth microdilution, Mueller-Hinton broth, approximately 10^5 CFU/mL, 37°C, 24 h, absorbance 590 nm, at least triplicate
Description: as §1, §2, §3

[3] = Circular dichroism, alpha-helical content; assay type: physicochemical; conditions: CD, mean residue ellipticity at 222 nm (Eq 1), peptide 0.4 mg/ml in 30 mM SDS, room temperature
Description: Circullar dichroism spectra of analyzed compounds were recorded on a Jasco J-815 spectropolarimeter using a quartz cell of 1 mm path length between 195–260 nm at room temperature. Peptides at concentration of 0.4 mg/ml were dissolved in water or 30 mM SDS solution. SDS micelle system was used as the simplified model of negatively charged lipid membrane. On the basis of the obtained results the alpha-helical content was determined from the mean residue ellipticities at 222 nm according to Eq 1: %Helix=([θ]obs/([θ]helixx(1−2.57/l))x100, (1) where [θ] obs is the experimentally observed mean-residue ellipticity at 222 nm, [θ]helix is the theoretical ellipticity of peptide of infinite length with a 100% helix population, taken as -39 500 deg·cm^2/dmol, and l is the number of peptide bonds.
Circular dichroism method was applied to obtain a basic information about the secondary structure of the synthesized compounds (with the exception of CAR, CAR3, DAL, CTEN2) in two chemical environments, water and 30 mM SDS. As expected, all the tested compounds in water adopted a random-coil structure, while in the presence of 30 mM SDS most of them formed α-helices with characteristic negative minima around 208 and 220 nm. […] The examples of CD spectra for selected peptides could be seen in supporting information (Figure A in S1 File). On the basis of the experimentally obtained values of the mean residue ellipticities of peptides at 222 nm their alpha-helical content was calculated according to the Eq 1 (Table 1).

[4] = test system: Candida glabrata (CCM 8270); assay type: cell-based; conditions: broth microdilution, Mueller-Hinton broth + 2% glucose, about 2.5 x 10^3 CFU/mL, 37°C, 24 h, absorbance 590 nm, at least triplicate
Description: (§4) Escherichia coli (PCM 2057), Staphylococcus aureus (PCM 2054), Staphylococcus epidermidis (PCM 2118), Pseudomonas aeruginosa (PCM 499) were obtained from Polish Collection of Microorganisms. Fungi strains Candida albicans (CCM 8186), Candida glabrata (CCM 8270), Candida parapsilosis (CCM 8260), Candida krusei (CCM 8271), Candida tropicalis (CCM 8264) were acquired from Czech Collection of Microorganisms.
as §1, §2, §3

[5] = test system: Pseudomonas aeruginosa (PCM 499); assay type: cell-based; conditions: broth microdilution, Mueller-Hinton broth, approximately 10^5 CFU/mL, 37°C, 24 h, absorbance 590 nm, at least triplicate
Description: as §4, §1, §2, §3

[6] = test system: Candida tropicalis (CCM 8264); assay type: cell-based; conditions: broth microdilution, Mueller-Hinton broth + 2% glucose, about 2.5 x 10^3 CFU/mL, 37°C, 24 h, absorbance 590 nm, at least triplicate
Description: as §4, §1, §2, §3

[7] = test system: Staphylococcus aureus (PCM 2054); assay type: cell-based; conditions: broth microdilution, Mueller-Hinton broth, approximately 10^5 CFU/mL, 37°C, 24 h, absorbance 590 nm, at least triplicate
Description: as §4, §1, §2, §3

[8] = test system: Candida albicans (CCM 8186); assay type: cell-based; conditions: broth microdilution, Mueller-Hinton broth + 2% glucose, about 2.5 x 10^3 CFU/mL, 37°C, 24 h, absorbance 590 nm, peptide 2 to 250 μg/mL, at least triplicate
Description: as §4, §1, §2, §3

[9] = test system: Staphylococcus epidermidis (PCM 2118); assay type: cell-based; conditions: broth microdilution, Mueller-Hinton broth, approximately 10^5 CFU/mL, 37°C, 24 h, absorbance 590 nm, at least triplicate
Description: as §4, §1, §2, §3

[10] = test system: Candida parapsilosis (CCM 8260); assay type: cell-based; conditions: broth microdilution, Mueller-Hinton broth + 2% glucose, about 2.5 x 10^3 CFU/mL, 37°C, 24 h, absorbance 590 nm, at least triplicate
Description: as §4, §1, §2, §3

[11] = test system: Candida krusei (CCM 8271); assay type: cell-based; conditions: broth microdilution, Mueller-Hinton broth + 2% glucose, about 2.5 x 10^3 CFU/mL, 37°C, 24 h, absorbance 590 nm, at least triplicate
Description: as §4, §1, §2, §3

[12] = test system: Escherichia coli (PCM 2057); assay type: cell-based; conditions: broth microdilution, Mueller-Hinton broth, approximately 10^5 CFU/mL, 37°C, 24 h, absorbance 590 nm, at least triplicate
Description: as §4, §1, §2, §3

[13] = test system: HaCaT keratinocytes; assay: Cell migration assay (in vitro scratch test); assay type: cell-based, human; conditions: 25 μg/mL, 24 h
Description: Fibroblasts and keratinocytes were seeded (5x10^5 cells/well) in 6-well plates. When desired monolayer confluence was reached, cells were starved for 24 hours in serum-free DMEM. The monolayer was scratched then with 200μL-pipette tip. The floating cells and cell debris were removed by double washing in PBS, further replaced with a fresh serum-free medium. Wounded monolayers were incubated for the next 24 h in the presence of tested peptides used at concentration of 25 μg/mL and 5 μg/mL of Mitomycin C (Sigma Aldrich) to prevent proliferation. At the end of the experiment medium was removed and the cells were fixed with 3.7% PFA for 5 min, stained for the next 30 min with 0.05% crystal violet solution, washed several times with distilled water and the plates were left inverted for a couple of minutes to drain. The wounded areas were then photographed by means of Zeiss Observer D1 microscope equipped with camera AxioCam and analyzed with AxioVision software (Carl Zeiss, Germany). Migration activity of the cells treated with the tested peptides were expressed as the percentage of the wounded area with respect to the control probe (cell cultures without any of the peptide), assumed as 100%.
An in vitro scratch test was performed to investigate the effect of the analyzed compounds on keratinocytes and fibroblasts migration. Evaluation was based on the efficiency of the invasion of the monolayer cells to the prewounded area within 24 h after stimulation with the appropriate compound added at concetration of 25μg/mL.
Fig 2 Effect of the peptides on HaCaT keratinocytes and fibroblasts cell migration in the in vitro scratch test. HaCaT cells and fibroblasts were grown in 6-well plates until the 100% confluence was reached, then cells were starved for the next 12 hours in DMEM without 10% FCS and scratched once vertically with a 200μL pipette tip. After being washed two times with sterile PBS, a fresh portion of DMEM medium was added and cells were treated with the tested peptides applied at their optimal doses (25 μg/mL). Migration was analyzed after 24 hours by means of Zeiss Observer D1 microscope, wounding areas were analyzed with AxioVision software and expressed as the percentage of the wound width in comparison to the control sample (cells incubated in DMEM without FCS). Control+ FCS corresponds to the sample with cells incubated in the medium containing 10% FCS and was treated as the additional positive control. Data represent the mean ± SD of three independent experiments. *P < 0.05, **P < 0.01, ***P < 0.001 vs. control.

[14] = test system: human primary dermal fibroblasts; assay: Cell migration assay (in vitro scratch test); assay type: cell-based; conditions: 25 μg/mL, 24 h, serum-free DMEM, Mitomycin C 5 μg/mL, vs. control without peptide, three independent experiments
Description: Biopsies of healthy human skin were obtained aseptically from three donors (47–69 years old) undergoing circumcision after obtaining their written informed consent. All the procedures were approved by the Ethics Committee of Medical University of Gdansk (NKEBN/483/2011. Issued: 2011-12-19). The samples were washed several times with sterile PBS (Sigma-Aldrich, Germany) containing antibiotic (200 U/mL penicillin and 200 μg/mL streptomycin), after which, the subcutaneous tissue was cut off with a sharp blade. The resulting sheets were cut into small fragments, washed two times with sterile PBS and treated with 6 U/mL dispase II (BD, USA) overnight at 4°C to separate epidermis and dermis. The dermis was then digested with 1.0 mg/mL collagenase type I (from Clostridium histolyticum Sigma-Aldrich, Germany) for 2 hours at 37°C to isolate fibroblasts. Cells were used between the 2nd and 4th passage in all experiments.
Fibroblasts and keratinocytes were seeded (5x10^5 cells/well) in 6-well plates. When desired monolayer confluence was reached, cells were starved for 24 hours in serum-free DMEM. The monolayer was scratched then with 200μL-pipette tip. […] The wounded areas were then photographed by means of Zeiss Observer D1 microscope equipped with camera AxioCam and analyzed with AxioVision software (Carl Zeiss, Germany). Migration activity of the cells treated with the tested peptides were expressed as the percentage of the wounded area with respect to the control probe (cell cultures without any of the peptide), assumed as 100%.
An in vitro scratch test was performed to investigate the effect of the analyzed compounds on keratinocytes and fibroblasts migration. […]
Fig 2 Effect of the peptides on HaCaT keratinocytes and fibroblasts cell migration in the in vitro scratch test. […] Migration was analyzed after 24 hours by means of Zeiss Observer D1 microscope, wounding areas were analyzed with AxioVision software and expressed as the percentage of the wound width in comparison to the control sample (cells incubated in DMEM without FCS). […]

## CC(C)C[C@H](NC(=O)[C@H](Cc1ccccc1)NC(=O)CNC(=O)[C@@H](C)NC(=O)[C@@H](N)Cc1ccc(O)cc1)C(=O)N[C@@H](CCCNC(=N)N)C(=O)NCCOCCOCC(=O)N[C@@H](CCCCN)C(=O)N[C@@H](CCCCN)C(=O)N[C@H](C(=O)N[C@H](C(=O)N[C@@H](Cc1ccccc1)C(=O)N[C@@H](Cc1c[nH]c2ccccc12)C(=O)N[C@H](C(=O)N[C@@H](CCCCN)C(=O)N[C@@H](Cc1ccccc1)C(=O)N[C@@H](CCCCN)C(N)=O)C(C)C)C(C)C)C(C)C [DAL-PEG-KSLW] (HELM PEPTIDE1{Y.[dA].G.F.L.R.[O=C(COCCOCCN[*:1])[*:2]].K.K.V.V.F.W.V.K.F.K.[am]}$$$$V2.0; N-terminus assumed)
[1]
  MIC B. cereus: 125 µg/mL (≈ 57.9 µM)
[2]
  MIC B. subtilis: 15.6 µg/mL (≈ 7.22 µM)
[3]
  α-helicity: 22%
[4]
  MIC C.glabrata: 125 µg/mL
[5]
  MIC P. aeruginosa: 62.5 µg/mL (≈ 28.9 µM)
[6]
  MIC C.tropicalis: 7.8 µg/mL
[7]
  MIC S.aureus: 62.5 µg/mL (≈ 28.9 µM)
[8]
  MIC C. albicans: 31.3 µg/mL
[9]
  MIC S. epidermidis: 3.9 µg/mL (≈ 1.8 µM)
[10]
  MIC C. parapsilosis: 62.5 µg/mL
[11]
  MIC C.krusei: 31.3 µg/mL
[12]
  MIC E.coli: 7.8 µg/mL (≈ 3.61 µM)
[13]; serum-free DMEM, Mitomycin C 5 μg/mL, vs. control without peptide, three independent experiments
  Effect on keratinocyte migration (scratch test), in words: best results
[13]; scratch test
  Keratinocyte migration higher than that of the native peptides KSLW and DAL: about 15%
[14]
  Effect on fibroblast migration (scratch test), in words: highest migration rate
